Reference: patent US7683065B2, “Pyridines useful as modulators of ion channels” (Vertex Pharmaceuticals Incorporated, priority 2005, dated 2010)
Like-named read-outs stand apart in the source and are kept apart here.

What was measured:
NaV1.8 [1] = molecular target: T1, NaV1.8 (Homo sapiens, UniProt Q9Y5Y9); experiment: Activity against NaV 1.8 channel (NaV inhibition assays, Table 4); assay type: cell-based
Method: Compounds of the invention are useful as antagonists of voltage-gated sodium ion channels. Antagonist properties of test compounds were assessed as follows. Cells expressing the NaV of interest were placed into microtiter plates. After an incubation period, the cells were stained with fluorescent dyes sensitive to the transmembrane potential. The test compounds were added to the microtiter plate. The cells were stimulated with either a chemical or electrical means to evoke a NaV dependent membrane potential change from unblocked channels, which was detected and measured with trans-membrane potential-sensitive dyes. Antagonists were detected as a decreased membrane potential response to the stimulus. The optical membrane potential assay utilized voltage-sensitive FRET sensors described by Gonzalez and Tsien (See Gonzalez, J. E. and R. Y. Tsien (1995) “Voltage sensing by fluorescence resonance energy transfer in single cells” Biophys J 69(4): 1272-80, and Gonzalez, J. E. and R. Y. Tsien (1997) “Improved indicators of cell membrane potential that use fluorescence resonance energy transfer” Chem Biol 4(4): 269-77) in combination with instrumentation for measuring fluorescence changes such as the Voltage/Ion Probe Reader (VIPR®) (See, Gonzalez, J. E., K. Oades, et al. (1999) “Cell-based assays and instrumentation for screening ion-channel targets” Drug Discov Today 4(9): 431439).
24 hours before the assay on VIPR, CHO cells endogenously expressing a NaV1.2 type voltage-gated NaV are seeded in 96-well poly-lysine coated plates at 60,000 cells per well. Other subtypes are performed in an analogous mode in a cell line expressing the NaV of interest. • 1) On the day of the assay, medium is aspirated and cells are washed twice with 225 μL of Bath Solution #2 (BS#2). • 2) A 15 uM CC2-DMPE solution is prepared by mixing 5 mM coumarin stock solution with 10% Pluronic 127 1:1 and then dissolving the mix in the appropriate volume of BS#2. • 3) After bath solution is removed from the 96-well plates, the cells are loaded with 80 μL of the CC2-DMPE solution. Plates are incubated in the dark for 30 minutes at room temperature. • 4) While the cells are being stained with coumarin, a […] oxonol solution in BS#2 is prepared. In addition to DiSBAC2(3), this solution should contain 0.75 mM ABSC1 and […] veratridine (prepared from 10 mM EtOH stock, Sigma #V-5754). • 5) After 30 minutes, CC2-DMPE is removed and the cells are washed twice with 225 μL of BS#2. […] The cells are then incubated for 20-30 minutes. • 7) Once the incubation is complete, the cells are ready to be assayed on VIPR® with a sodium addback protocol. […]
The following is an example of how NaV1.3 inhibition activity is measured using the optical membrane potential method#2. […]

neuropathic pain = settings: in vivo; cited from earlier work
NaV1.8 [2] = molecular target: T1, NaV1.8; settings: read-out: TTX IC50; cited from earlier work
NaV1.3 = NaV1.3 (Homo sapiens, UniProt Q9NY46); settings: read-out: TTX IC50; cited from earlier work
Chain of NaV1.3 (Q9NY46 whole entry, looked up): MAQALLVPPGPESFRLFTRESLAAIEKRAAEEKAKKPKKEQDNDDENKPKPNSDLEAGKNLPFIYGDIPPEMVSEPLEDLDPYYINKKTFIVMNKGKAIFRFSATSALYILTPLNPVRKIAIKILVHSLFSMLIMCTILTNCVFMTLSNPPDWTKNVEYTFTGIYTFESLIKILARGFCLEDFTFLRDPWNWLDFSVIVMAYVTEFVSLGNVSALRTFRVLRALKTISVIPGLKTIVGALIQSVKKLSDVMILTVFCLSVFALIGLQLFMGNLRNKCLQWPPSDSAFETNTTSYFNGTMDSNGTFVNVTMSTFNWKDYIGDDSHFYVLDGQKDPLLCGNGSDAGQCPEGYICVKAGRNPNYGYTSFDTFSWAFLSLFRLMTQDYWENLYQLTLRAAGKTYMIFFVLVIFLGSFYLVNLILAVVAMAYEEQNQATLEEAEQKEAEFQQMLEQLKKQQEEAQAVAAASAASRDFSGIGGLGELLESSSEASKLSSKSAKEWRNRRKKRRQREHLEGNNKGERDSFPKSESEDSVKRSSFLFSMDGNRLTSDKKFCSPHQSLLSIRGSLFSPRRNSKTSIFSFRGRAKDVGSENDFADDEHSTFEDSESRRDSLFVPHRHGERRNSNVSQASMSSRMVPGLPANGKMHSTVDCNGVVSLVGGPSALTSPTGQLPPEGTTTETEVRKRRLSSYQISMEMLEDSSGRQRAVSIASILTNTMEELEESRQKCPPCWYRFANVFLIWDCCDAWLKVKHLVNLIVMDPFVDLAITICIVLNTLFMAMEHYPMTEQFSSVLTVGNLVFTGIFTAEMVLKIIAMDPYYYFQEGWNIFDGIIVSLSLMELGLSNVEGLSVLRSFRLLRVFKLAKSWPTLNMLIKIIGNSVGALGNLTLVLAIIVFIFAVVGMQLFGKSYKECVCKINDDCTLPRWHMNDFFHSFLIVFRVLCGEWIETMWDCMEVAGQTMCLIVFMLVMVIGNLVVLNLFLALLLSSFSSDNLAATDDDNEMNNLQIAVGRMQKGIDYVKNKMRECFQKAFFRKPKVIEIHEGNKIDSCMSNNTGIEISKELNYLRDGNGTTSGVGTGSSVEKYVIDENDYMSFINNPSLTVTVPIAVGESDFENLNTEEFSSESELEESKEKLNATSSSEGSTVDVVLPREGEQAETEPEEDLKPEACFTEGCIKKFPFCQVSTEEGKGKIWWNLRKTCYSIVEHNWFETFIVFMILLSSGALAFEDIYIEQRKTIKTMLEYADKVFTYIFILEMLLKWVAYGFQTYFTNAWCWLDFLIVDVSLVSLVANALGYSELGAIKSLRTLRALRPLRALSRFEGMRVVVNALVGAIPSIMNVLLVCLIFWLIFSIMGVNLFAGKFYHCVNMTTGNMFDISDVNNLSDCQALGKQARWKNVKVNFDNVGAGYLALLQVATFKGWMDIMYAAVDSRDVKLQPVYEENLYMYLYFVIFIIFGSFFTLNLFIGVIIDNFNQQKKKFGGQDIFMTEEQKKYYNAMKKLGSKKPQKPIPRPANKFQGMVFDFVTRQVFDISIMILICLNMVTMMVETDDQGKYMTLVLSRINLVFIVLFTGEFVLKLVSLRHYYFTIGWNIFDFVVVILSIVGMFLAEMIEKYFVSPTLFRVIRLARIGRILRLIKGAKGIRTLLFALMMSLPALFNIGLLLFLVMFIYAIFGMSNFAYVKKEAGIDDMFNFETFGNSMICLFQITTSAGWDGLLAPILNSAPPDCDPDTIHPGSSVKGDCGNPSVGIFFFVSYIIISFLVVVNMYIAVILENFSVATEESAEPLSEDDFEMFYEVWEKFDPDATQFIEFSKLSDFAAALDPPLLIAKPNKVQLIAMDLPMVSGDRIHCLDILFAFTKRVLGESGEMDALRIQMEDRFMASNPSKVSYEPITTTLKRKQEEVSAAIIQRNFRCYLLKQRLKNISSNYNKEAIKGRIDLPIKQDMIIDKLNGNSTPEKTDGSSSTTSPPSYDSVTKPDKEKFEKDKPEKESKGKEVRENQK

T1 sequence (Q9Y5Y9 whole entry, looked up): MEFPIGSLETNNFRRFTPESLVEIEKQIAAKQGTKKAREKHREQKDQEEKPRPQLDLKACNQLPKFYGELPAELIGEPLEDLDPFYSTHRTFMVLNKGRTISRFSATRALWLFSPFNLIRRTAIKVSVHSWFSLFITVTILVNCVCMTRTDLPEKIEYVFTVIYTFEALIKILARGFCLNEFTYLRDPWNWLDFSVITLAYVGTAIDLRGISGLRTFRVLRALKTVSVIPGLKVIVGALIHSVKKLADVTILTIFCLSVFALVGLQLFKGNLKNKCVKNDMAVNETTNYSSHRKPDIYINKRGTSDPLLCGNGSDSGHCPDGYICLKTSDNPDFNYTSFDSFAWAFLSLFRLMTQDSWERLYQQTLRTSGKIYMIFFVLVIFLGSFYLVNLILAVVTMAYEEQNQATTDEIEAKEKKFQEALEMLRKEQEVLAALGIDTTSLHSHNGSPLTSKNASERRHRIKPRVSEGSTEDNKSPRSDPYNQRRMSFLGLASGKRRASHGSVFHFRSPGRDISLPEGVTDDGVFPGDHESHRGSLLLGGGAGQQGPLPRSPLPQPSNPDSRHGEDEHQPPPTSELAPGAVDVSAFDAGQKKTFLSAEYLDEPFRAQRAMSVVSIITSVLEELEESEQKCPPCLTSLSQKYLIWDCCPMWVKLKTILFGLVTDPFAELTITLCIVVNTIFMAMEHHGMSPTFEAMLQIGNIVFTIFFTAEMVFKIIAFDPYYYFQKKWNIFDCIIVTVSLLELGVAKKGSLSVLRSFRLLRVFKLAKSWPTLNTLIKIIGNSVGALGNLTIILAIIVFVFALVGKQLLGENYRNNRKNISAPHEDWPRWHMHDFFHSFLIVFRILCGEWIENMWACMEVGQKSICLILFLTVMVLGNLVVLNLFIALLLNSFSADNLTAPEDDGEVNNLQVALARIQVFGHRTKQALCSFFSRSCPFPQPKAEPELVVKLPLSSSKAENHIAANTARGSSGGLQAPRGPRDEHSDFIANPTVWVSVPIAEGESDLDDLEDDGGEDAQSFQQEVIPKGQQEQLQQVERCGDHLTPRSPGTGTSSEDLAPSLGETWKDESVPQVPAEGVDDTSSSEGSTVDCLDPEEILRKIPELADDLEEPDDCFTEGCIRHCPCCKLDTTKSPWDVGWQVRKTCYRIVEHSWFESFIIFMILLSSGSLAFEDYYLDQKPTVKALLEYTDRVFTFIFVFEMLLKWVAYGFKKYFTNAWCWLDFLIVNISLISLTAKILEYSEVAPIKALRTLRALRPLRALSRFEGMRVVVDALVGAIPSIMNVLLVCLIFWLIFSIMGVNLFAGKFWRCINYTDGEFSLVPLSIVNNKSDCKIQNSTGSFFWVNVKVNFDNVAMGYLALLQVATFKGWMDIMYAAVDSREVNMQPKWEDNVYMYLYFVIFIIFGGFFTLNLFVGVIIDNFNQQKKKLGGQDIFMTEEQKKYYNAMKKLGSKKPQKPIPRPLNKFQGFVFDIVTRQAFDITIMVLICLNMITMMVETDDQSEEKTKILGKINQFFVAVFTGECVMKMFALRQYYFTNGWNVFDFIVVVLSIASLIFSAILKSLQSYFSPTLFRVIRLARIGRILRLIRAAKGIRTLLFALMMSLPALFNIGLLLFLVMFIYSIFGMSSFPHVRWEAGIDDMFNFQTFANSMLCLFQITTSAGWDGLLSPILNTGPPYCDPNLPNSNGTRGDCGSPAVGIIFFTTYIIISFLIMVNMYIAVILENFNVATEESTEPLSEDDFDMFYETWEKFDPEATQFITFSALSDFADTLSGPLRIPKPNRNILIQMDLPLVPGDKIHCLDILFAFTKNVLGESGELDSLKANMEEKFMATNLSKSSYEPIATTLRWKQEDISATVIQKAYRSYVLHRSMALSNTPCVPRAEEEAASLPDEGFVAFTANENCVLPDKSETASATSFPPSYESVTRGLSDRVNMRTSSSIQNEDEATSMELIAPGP

Compound	IC50 (NaV1.8 [1]) [µM]	also measured
CC(C)COC(=O)N1CCN(c2ccnc(-c3ccccc3O)c2)CC1 [Compound 1, Isobutyl 4-(2-(2-hydroxyphenyl)pyridin-4-yl)piperazine-1-carboxylate]	> 15	–
CC(C)COC(=O)N1CCN(c2cccc(-c3ccccc3O)n2)CC1 [Compound 3, 4-[6-(2-hydroxyphenyl)-2-pyridyl]piperazine-1-carboxylic acid isobutyl ester]	10 to 15	–
CC(C)C[C@@H](O)C(=O)N1CCN(c2cccc(-c3ccccc3O)n2)CC1 [Compound 4, (R)-2-hydroxy-1-(4-(6-(2-hydroxyphenyl)pyridin-2-yl)piperazin-1-yl)-4-methylpentan-1-one]	< 10	–
CC(C)COC(=O)N1CCN(c2cc(-c3ccccc3O)ccn2)CC1 [Compound 5, Isobutyl-4-[4′-(2-hydroxyphenyl)-pyridin-2′-yl]-piperazine-1-carboxylate]	> 15	–
NCC1(CC(=O)O)CCCCC1 [Gabapentin]	–	share of patients in whom it works (neuropathic pain): 60%
NC1=N[C@H](O)[C@H]2[C@H]3O[C@]4(O)O[C@@H]([C@@H](O)[C@@]2(N1)[C@@H]4O)[C@]3(O)CO [TTX, tetrodotoxin]	–	IC50 (NaV1.8 [2]): > 50 µM; IC50 (NaV1.3): 0.015 µM
